Patent US10717757B2, “Ketolides having antibacterial activity” (BIOPHARMATI SA, priority 2016, dated 2020)
≈ marks a conversion by molar mass, not a printed value. Where two headings read alike, the source gives them in different places.

Assays:
[1] = system: S. pneumoniae AUCC479, macrolide & penicillin sensitive; assay: Minimum inhibitory concentration (MIC), broth microdilution, AUCC479; assay type: cell-based, Streptococcus pneumoniae
Protocol: (§1) Protocols for Determining Minimum Inhibitory Concentration (MIC) of Test Compounds Against Streptococcus Pneumoniae Strains
(§2) The test strains are revived from frozen stock on blood agar plates and incubated at 35±2° C. for 18-20 hours in 5% CO2. Colonies are directly suspended from an overnight grown agar culture in CAMHB/saline and optical density adjusted to 0.5 McFarland turbidity standard (1-2×10^8 cfu/mL). Adjusted cultures are further diluted 1:100 using CAMHB such that after inoculation each well finally contains ˜5×10^5 cfu/mL. For broth dilution testing of Streptococcus species, CAMHB is supplemented with 2.5-5% v/v LHB. Colony counts of inoculum suspension is estimated by ten-fold serial dilutions and plating each dilution on agar plate. After incubation, the plates are observed for growth and microbial counts determined.
(§3) Compounds are weighed and dissolved in water/DMSO/other solvent to yield 1 mg/mL stock solution. Serial two-fold dilutions of the test compounds and reference antibiotics are prepared. 50 μL of the diluted drug solutions are dispensed in wells of microtiter trays (96 well).
(§4) To each of the wells of the microtiter tray, 50 μL of the diluted organism are inoculated to obtain a final inoculum density of ˜5×10^5 cfu/mL. Broth control, compound control and organism control wells are set up.
(§5) MIC testing are done in duplicates
(§6) MIC is defined as the lowest concentration of an antimicrobial agent that prevents visible growth of a microorganism in broth dilution susceptibility test.
(§7) After incubation period, growth of organism in the wells are detected by unaided eye facilitated by a viewing device. The amount of growth in the drug-containing wells are compared with the amount of growth in the organism-control wells.

[2] = system: S. pneumoniae AUCC488, macrolide & penicillin resistant; assay: Minimum inhibitory concentration (MIC), broth microdilution, AUCC488; assay type: cell-based, Streptococcus pneumoniae
Protocol: as §1, §2, §3, §4, §5, §6, §7

[3] = system: S. pneumoniae AUCC483, macrolide resistant & penicillin sensitive; assay: Minimum inhibitory concentration (MIC), broth microdilution, AUCC483; assay type: cell-based, Streptococcus pneumoniae
Protocol: as §1, §2, §3, §4, §5, §6, §7

CYP3A4 = CYP3A4 (Homo sapiens, UniProt P08684); assay: Cytochrome P4503A4 inhibition assay, human liver microsomes, LC-MS/MS probe substrate method; settings: for IC50: human liver microsomes 0.1 mg/mL, 10 min; for CYP3A4 inhibition in comparison with solithromycin and ketoconazole: summary of Table 1
Protocol: Cytochrome P4503A4 Inhibition Assay for Determining IC50
The potential of the compound to inhibit CYP 3A4 was tested by the LC-MS/MS based probe substrate method using human liver microsomes. Midazolam or testosterone, which are metabolized to hydroxymidazolam or hydroxytestosterone by CYP 3A4, were the probe substrates used. […] NADPH was added as the cofactor. […] After incubation for ten minutes, the amount of 1-hydroxymidazolam or 6β-hydroxyltestosterone formed was determined by LC-MS/MS method as a measure of enzyme activity. Percent inhibition of enzyme activity was calculated based on the amount of metabolites (1-hydroxymidazolam or 6β-hydroxyltestosterone) formed for each sample relative to the basal control and plotted in a curve versus the compound concentration to obtain the IC50.

[4] = system: S. pneumoniae AUCC489, macrolide & penicillin resistant; assay: Minimum inhibitory concentration (MIC), broth microdilution, AUCC489; assay type: cell-based, Streptococcus pneumoniae
Protocol: as §1, §2, §3, §4, §5, §6, §7

[5] = system: S. pneumoniae ATCC 49619 (CLSI QC strain); assay: Minimum inhibitory concentration (MIC), broth microdilution, QC strain; assay type: cell-based, Streptococcus pneumoniae; settings: MIC in duplicates
Protocol: as §1, §2, §3, §4, §5, §6, §7

[6] = read-out: IC50 CYP3A4 (midazolam), 5 μM midazolam
[7] = read-out: IC50 CYP3A4 (testosterone), 50 μM testosterone

Chain of CYP3A4 (P08684 whole entry): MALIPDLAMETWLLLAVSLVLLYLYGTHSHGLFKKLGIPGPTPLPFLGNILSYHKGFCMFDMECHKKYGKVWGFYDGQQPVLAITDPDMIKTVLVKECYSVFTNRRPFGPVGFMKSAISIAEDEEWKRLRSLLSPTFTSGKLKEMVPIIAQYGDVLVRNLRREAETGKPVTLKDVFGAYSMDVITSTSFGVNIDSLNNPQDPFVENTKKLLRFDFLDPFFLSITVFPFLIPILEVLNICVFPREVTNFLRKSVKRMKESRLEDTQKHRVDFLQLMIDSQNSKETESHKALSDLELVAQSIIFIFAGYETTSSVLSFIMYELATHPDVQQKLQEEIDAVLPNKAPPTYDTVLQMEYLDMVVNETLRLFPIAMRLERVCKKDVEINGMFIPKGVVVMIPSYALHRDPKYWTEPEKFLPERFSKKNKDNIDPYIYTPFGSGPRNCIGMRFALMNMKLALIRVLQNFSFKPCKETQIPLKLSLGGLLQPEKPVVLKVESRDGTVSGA

Compound | MIC Strep. Pneumoniae AUCC 479 penS, macS [1] [µg/mL] | MIC Strep. Pneumoniae AUCC 488 penR, macR M or iMLS [2] [µg/mL] | MIC Strep. Pneumoniae AUCC 483 penS, macR cMLS [3] [µg/mL] | IC50 (CYP3A4; [6]) [µM] | CYP3A4 inhibition in comparison with solithromycin and ketoconazole (CYP3A4) | MIC Strep. Pneumoniae AUCC 489 penR, macR cMLS [4] [µg/mL] | MIC Strep. Pneumoniae ATCC49619 QC strain [5] [µg/mL] | IC50 (CYP3A4; [7]) [µM] | MIC ([5]; Streptococcus pneumoniae, ATCC49619 QC strain, read-out: MIC Strep. Pneumoniae ATCC49619 QC strain) [µg/mL]
(3aS,4R,7R,9R,10R,11R,13R,15R,15aR)-10-{[(2S,3R,4S,6R)-4-(dimethylamino)-3-hydroxy-6-methyloxan-2-yl]oxy}-4-ethyl-3a,7,9,11,13,15-hexamethyl-1-[2-(4-methylpiperazin-1-yl)ethyl]-11-{[(2E)-3-(quinolin-3-yl)prop-2-en-1-yl]oxy}-tetradecahydro-1H-oxacyclotetradeca[4,3-d][1,3]oxazole-2,6,8,14-tetrone [Compound 13K] | 0.03 to 0.06 | 1 | 0.5 to 1 | 6.5 | lower IC50 inhibition of CYP3A4 inhibition | 0.5 to 1 | 0.06 to 0.12 | – | –
(3aS,4R,7R,9R,10R,11R,13R,15R,15aR)-10-{[(2S,3R,4S,6R)-4-(dimethylamino)-3-hydroxy-6-methyloxan-2-yl]oxy}-4-ethyl-3a,7,9,11,13,15-hexamethyl-1-{2-[(2S)-1-methylpyrrolidin-2-yl]ethyl}-11-{[(2E)-3-(quinolin-3-yl)prop-2-en-1-yl]oxy}-tetradecahydro-1H-oxacyclotetradeca[4,3-d][1,3]oxazole-2,6,8,14-tetrone [Compound 13Q] | 0.015 to 0.03 | 0.5 to 1 | 0.12 to 0.25 | – | lower IC50 inhibition of CYP3A4 inhibition | 0.12 to 0.25 | 0.03 to 0.06 | 4.8 | –
CC[C@H]1OC(=O)[C@H](C)C(=O)[C@H](C)[C@@H](O[C@@H]2O[C@H](C)C[C@H](N(C)C)[C@H]2O)[C@](C)(OC/C=C/c2cnc3ccccc3c2)C[C@@H](C)C(=O)[C@H](C)[C@H]2N(CC3CCN(C)CC3)C(=O)O[C@]12C [Compound 13L, (3aS,4R,7R,9R,10R,11R,13R,15R,15aR)-10-{[(2S,3R,4S,6R)-4-(dimethylamino)-3-hydroxy-6-methyloxan-2-yl]oxy}-4-ethyl-3a,7,9,11,13,15-hexamethyl-1-[(1-methylpiperidin-4-yl)methyl]-11-{[(2E)-3-(quinolin-3-yl)prop-2-en-1-yl]oxy}-tetradecahydro-1H-oxacyclotetradeca[4,3-d][1,3]oxazole-2,6,8,14-tetrone] | 0.03 (≈ 0.0342 µM) | 0.5 to 1 | 0.5 to 1 | 6.3 | lower IC50 inhibition of CYP3A4 inhibition | 0.5 to 1 | 0.06 (≈ 0.0684 µM) | – | –
(3aS,4R,7R,9R,10R,11R,13R,15R,15aR)-10-{[(2S,3R,4S,6R)-4-(dimethylamino)-3-hydroxy-6-methyloxan-2-yl]oxy}-1-[2-(dimethylamino)ethyl]-4-ethyl-3a,7,9,11,13,15-hexamethyl-11-{[(2E)-3-(quinolin-3-yl)prop-2-en-1-yl]oxy}-tetradecahydro-1H-oxacyclotetradeca[4,3-d][1,3]oxazole-2,6,8,14-tetrone [Compound 13F, reference compound] | 0.0015 | 0.25 | 0.25 to 0.5 | 1.1 | – | 0.12 to 0.25 | 0.015 to 0.06 | – | –
(3aS,4R,7R,9R,10R,11R,13R,15R,15aR)-10-{[(2S,3R,4S,6R)-4-(dimethylamino)-3-hydroxy-6-methyloxan-2-yl]oxy}-4-ethyl-1-{[(2S)-1-ethylpyrrolidin-2-yl]methyl}-3a,7,9,11,13,15-hexamethyl-11-{[(2E)-3-(quinolin-3-yl)prop-2-en-1-yl]oxy}-tetradecahydro-1H-oxacyclotetradeca[4,3-d][1,3]oxazole-2,6,8,14-tetrone [Compound 13C] | 0.03 | 0.5 | 0.5 to 1 | 1.8 | lower IC50 inhibition of CYP3A4 inhibition | 0.5 to 1 | 0.06 to 0.12 | – | –
(3aS,4R,7R,9R,10R,11R,13R,15R,15aR)-1-[2-(diethylamino)ethyl]-10{[(2S,3R,4S,6R)-4-(dimethylamino)-3-hydroxy-6-methyloxan-2-yl]oxy}-4-ethyl-3a,7,9,11,13,15-hexamethyl-11-{[(2E)-3-(quinolin-3-yl)prop-2-en-1-yl]oxy}-tetradecahydro-1H-oxacyclotetradeca[4,3-d][1,3]oxazole-2,6,8,14-tetrone [Compound 13A] | 0.008 to 0.015 | 0.12 to 0.25 | 0.12 to 0.25 | 1.2 | lower IC50 inhibition of CYP3A4 inhibition | 0.12 to 0.25 | 0.015 to 0.06 | – | –
(3aS,4R,7R,9R,10R,11R,13R,15R,15aR)-10-{[(2S,3R,4S,6R)-4-(dimethylamino)-3-hydroxy-6-methyloxan-2-yl]oxy}-4-ethyl-3a,7,9,11,13,15-hexamethyl-1-{2-[(2R)-1-methylpyrrolidin-2-yl]ethyl}-11-{[(2E)-3-(quinolin-3-yl)prop-2-en-1-yl]oxy}-tetradecahydro-1H-oxacyclotetradeca[4,3-d][1,3]oxazole-2,6,8,14-tetrone [Compound 13P] | 0.015 to 0.03 | 0.5 to 1 | 0.06 to 0.12 | – | lower IC50 inhibition of CYP3A4 inhibition | 0.12 to 0.25 | 0.03 to 0.06 | 6.3 | –
CC[C@H]1OC(=O)[C@H](C)C(=O)[C@H](C)[C@@H](O[C@@H]2O[C@H](C)C[C@H](N(C)C)[C@H]2O)[C@](C)(OC/C=C/c2cnc3ccccc3c2)C[C@@H](C)C(=O)[C@H](C)[C@H]2N(CCOC)C(=O)O[C@]12C [Compound 13E, (3aS,4R,7R,9R,10R,11R,13R,15R,15aR)-10-{[(2S,3R,4S,6R)-4-(dimethylamino)-3-hydroxy-6-methyloxan-2-yl]oxy}-4-ethyl-1-(2-methoxyethyl)-3a,7,9,11,13,15-hexamethyl-11-{[(2E)-3-(quinolin-3-yl)prop-2-en-1-yl]oxy}-tetradecahydro-1H-oxacyclotetradeca[4,3-d][1,3]oxazole-2,6,8,14-tetrone] | 0.03 to 0.06 | 0.25 to 0.5 | >4 | – | – | >4 | 0.06 to 0.12 | – | –
CC[C@H]1OC(=O)[C@H](C)[C@@H](O[C@H]2C[C@@](C)(OC)[C@@H](O)[C@H](C)O2)[C@H](C)[C@@H](O[C@@H]2O[C@H](C)C[C@H](N(C)C)[C@H]2O)[C@](C)(O)C[C@@H](C)C(=O)[C@H](C)[C@@H](O)[C@]1(C)O [erythromycin, reference compound] | 0.03 to 0.06 | 8 to 16 | 64 (≈ 87.2 µM) | – | – | 8 to 32 | – | – | 0.03 to 0.06 (≈ 0.0409 to 0.0818 µM)
(3aS,4R,7R,9R,10R,11R,13R,15R,15aR)-1-[3-(azetidin-1-yl)propyl]-10-{[(2S,3R,4S,6R)-4-(dimethylamino)-3-hydroxy-6-methyloxan-2-yl]oxy}-4-ethyl-3a,7,9,11,13,15-hexamethyl-11-{[(2E)-3-(quinolin-3-yl)prop-2-en-1-yl]oxy}-tetradecahydro-1H-oxacyclotetradeca[4,3-d][1,3]oxazole-2,6,8,14-tetrone [Compound 13M] | 0.015 to 0.03 | 0.5 to 1 | 0.25 to 0.5 | – | lower IC50 inhibition of CYP3A4 inhibition | 0.25 to 0.5 | 0.03 to 0.06 | 10.3 | –
